Measurements published in PMC9738727, “Purification and Characterization of Novel Anti-MRSA Peptides Produced by Brevibacillus sp. SPR-20” (Molecules, 2022).
Ends that are not written are not given here.

Tested on: MRSA isolate 2468
Test: Killing kinetics
Format: cell-based, Staphylococcus aureus
Conditions: for killing half-time / rate constant of cell death within 24 h: linear regression
Description: S. aureus TISTR 517 and MRSA isolate 2468 were cultured in CAMHB and standardized to obtain the cell number of 5 × 10^5 CFU/mL for initial treatment. […] The reactions were incubated at 37 °C, and then the total volume was spread on MH agar at specific time intervals (0–24 h). The plates were incubated at 37 °C for 24 h before colony count. […] The rate constant of cell death within 24 h and the killing half-time were calculated based on slope and linear regression relationship, respectively. Each experiment was performed in triplicate in 96-well plates. Significant differences (p-value < 0.05) were analyzed by two-way ANOVA and post hoc Tukey’s test for multiple comparisons between treated and non-treated samples.

VVVNVLVKVLPPPVV [Peptide P1]
killing half-time (1× MIC): 47.75 h | rate constant of cell death within 24 h (1× MIC): -0.06 h⁻¹ | killing half-time (2× MIC): 13.21 h | rate constant of cell death within 24 h (2× MIC): -0.23 h⁻¹ | inhibition rate (4× MIC, during 3–12 h): 0.32 h⁻¹ | killing half-time (4× MIC, 95% CI 5.67 to 18.47): 9.78 h | rate constant of cell death within 24 h (4× MIC, 95% CI −0.17 to −0.36): -0.27 h⁻¹ | inhibition rate (after 6 h of treatment, 1× MIC): 0.06 h⁻¹ | inhibition rate (after 6 h of treatment, 2× MIC): 0.24 h⁻¹ | reduction rate of viable cells (first 3 h): 0.10 h⁻¹
